We go through 24 compounds from US10617690B2 (priority 2015, dated 2020).

The target in test [1] is JAK1 protein kinase (Homo sapiens, UniProt P23458). Briefly: biochemical. The following applies: 38 uM ATP, 90 min. The procedure: In Vitro Activity Test of Jak1, Jak 2 and Jak 3 Kinase
Recombinant humanized JAK1, JAK2 and JAK3 […] were all purchased from Life technology. LANCE Ultra ULight™-JAK-1(Tyr1023) peptide and LANCE Eu-W1024 Anti-phosphotyrosine (PT66) were both purchased from PerkinElmer. Envision (PerkinElmer) was used to read a plate.
Three dilution of a test compound was prepared, and 11 final concentrations were obtained: 10 uM to 0.17 nM. Each concentration had two repeat wells. The content of DMSO in a detection reaction was 1%.
2 nM JAK1 protein kinase, 50 nM LANCE Ultra ULight™-JAK-1(Tyr1023) peptide, 38 uM ATP, 50 mM HEPES (pH7.5), 10 mM MgCl2, 1 mM EGTA, 2 mM DTT, and 0.01% BRIJ-35. Detection plate was White Proxiplate 384-Plus plate (PerkinElmer), the reaction was conducted for 90 min at room temperature, and reaction system was 10 ul.
10 ul detection reagent was added into the reaction plate, wherein the final concentration of LANCE Eu-W1024 Anti-phosphotyrosine (PT66) was 2 nM, the final concentration of EDTA was 10 mM, incubation was conducted for 60 min at room temperature, and the plate was read by the Envision.
The reading was converted into a suppression ratio as follow equation: (%)=([…])/(Max−Min)*100%. IC50 data was detected by 4 parametric curve fitting (Model 205 in XLFIT5, iDBS), see Table 1.

Test [2] addresses JAK2 protein kinase (Homo sapiens, UniProt O60674). Kind of test: biochemical. As to conditions: 12 uM ATP, 60 min.
Text: (§1) Recombinant humanized JAK1, JAK2 and JAK3 protease were all purchased from Life technology. LANCE Ultra ULight™-JAK-1(Tyr1023) peptide and LANCE Eu-W1024 Anti-phosphotyrosine (PT66) were both purchased from PerkinElmer. Envision (PerkinElmer) was used to read a plate.
(§2) The reading was converted into a suppression ratio as follow equation: (%)=(Min−Ratio)/(Max−Min)*100%.
The target of test [3] is T1, JAK3 (Homo sapiens, UniProt P52333).
T1 construct: purchased Life technology
T1 sequence (P52333 1-1124): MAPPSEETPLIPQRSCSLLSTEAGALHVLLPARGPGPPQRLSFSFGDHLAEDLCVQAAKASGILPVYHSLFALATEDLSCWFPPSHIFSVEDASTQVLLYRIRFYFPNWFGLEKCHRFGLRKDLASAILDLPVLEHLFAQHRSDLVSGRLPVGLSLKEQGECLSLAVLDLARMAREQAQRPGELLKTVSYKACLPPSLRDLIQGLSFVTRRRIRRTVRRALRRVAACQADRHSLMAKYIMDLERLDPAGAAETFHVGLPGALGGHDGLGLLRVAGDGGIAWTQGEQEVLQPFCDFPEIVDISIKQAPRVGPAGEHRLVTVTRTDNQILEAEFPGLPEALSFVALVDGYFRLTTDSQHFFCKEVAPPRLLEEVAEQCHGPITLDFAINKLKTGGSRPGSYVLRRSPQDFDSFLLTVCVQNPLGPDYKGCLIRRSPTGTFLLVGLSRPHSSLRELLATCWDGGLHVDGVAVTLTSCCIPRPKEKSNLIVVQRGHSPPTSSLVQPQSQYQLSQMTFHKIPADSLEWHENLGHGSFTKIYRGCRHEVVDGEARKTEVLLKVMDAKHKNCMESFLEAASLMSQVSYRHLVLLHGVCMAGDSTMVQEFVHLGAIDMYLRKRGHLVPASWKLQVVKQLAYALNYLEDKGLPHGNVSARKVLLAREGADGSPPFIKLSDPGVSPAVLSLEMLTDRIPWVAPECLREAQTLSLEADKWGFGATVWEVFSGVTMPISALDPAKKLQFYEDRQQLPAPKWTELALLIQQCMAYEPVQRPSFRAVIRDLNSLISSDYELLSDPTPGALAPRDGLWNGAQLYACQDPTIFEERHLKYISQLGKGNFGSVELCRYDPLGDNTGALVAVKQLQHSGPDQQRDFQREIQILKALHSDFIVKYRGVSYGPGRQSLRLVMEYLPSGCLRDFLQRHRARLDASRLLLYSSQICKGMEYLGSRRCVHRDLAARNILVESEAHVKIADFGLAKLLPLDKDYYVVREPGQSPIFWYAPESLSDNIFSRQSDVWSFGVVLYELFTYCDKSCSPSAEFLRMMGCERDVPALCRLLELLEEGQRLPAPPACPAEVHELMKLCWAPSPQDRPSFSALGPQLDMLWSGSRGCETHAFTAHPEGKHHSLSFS
Kind of test: In vitro activity test of JAK3 kinase (LANCE Ultra TR-FRET).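 Also: recombinant human JAK3 phosphorylating ULight-JAK-1(Tyr1023) peptide at 4 µM ATP, with 1% DMSO, detected by Eu-anti-phosphotyrosine TR-FRET on Envision and converted to percent inhibition.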 It is filed as biochemical. (TR-FRET usually uses a lanthanide donor and a delayed reading to cut background.)
Experimental: as §1
0.05 nM protein kinase, 50 nM LANCE Ultra ULight™-JAK-1(Tyr1023) peptide, 4 uM ATP, 50 mM HEPES (pH7.5), 10 mM MgCl2, 1 mM EGTA, 2 mM DTT, and 0.01% BRIJ-35.
as §2

JAK2 protein kinase, sequence (O60674 whole entry): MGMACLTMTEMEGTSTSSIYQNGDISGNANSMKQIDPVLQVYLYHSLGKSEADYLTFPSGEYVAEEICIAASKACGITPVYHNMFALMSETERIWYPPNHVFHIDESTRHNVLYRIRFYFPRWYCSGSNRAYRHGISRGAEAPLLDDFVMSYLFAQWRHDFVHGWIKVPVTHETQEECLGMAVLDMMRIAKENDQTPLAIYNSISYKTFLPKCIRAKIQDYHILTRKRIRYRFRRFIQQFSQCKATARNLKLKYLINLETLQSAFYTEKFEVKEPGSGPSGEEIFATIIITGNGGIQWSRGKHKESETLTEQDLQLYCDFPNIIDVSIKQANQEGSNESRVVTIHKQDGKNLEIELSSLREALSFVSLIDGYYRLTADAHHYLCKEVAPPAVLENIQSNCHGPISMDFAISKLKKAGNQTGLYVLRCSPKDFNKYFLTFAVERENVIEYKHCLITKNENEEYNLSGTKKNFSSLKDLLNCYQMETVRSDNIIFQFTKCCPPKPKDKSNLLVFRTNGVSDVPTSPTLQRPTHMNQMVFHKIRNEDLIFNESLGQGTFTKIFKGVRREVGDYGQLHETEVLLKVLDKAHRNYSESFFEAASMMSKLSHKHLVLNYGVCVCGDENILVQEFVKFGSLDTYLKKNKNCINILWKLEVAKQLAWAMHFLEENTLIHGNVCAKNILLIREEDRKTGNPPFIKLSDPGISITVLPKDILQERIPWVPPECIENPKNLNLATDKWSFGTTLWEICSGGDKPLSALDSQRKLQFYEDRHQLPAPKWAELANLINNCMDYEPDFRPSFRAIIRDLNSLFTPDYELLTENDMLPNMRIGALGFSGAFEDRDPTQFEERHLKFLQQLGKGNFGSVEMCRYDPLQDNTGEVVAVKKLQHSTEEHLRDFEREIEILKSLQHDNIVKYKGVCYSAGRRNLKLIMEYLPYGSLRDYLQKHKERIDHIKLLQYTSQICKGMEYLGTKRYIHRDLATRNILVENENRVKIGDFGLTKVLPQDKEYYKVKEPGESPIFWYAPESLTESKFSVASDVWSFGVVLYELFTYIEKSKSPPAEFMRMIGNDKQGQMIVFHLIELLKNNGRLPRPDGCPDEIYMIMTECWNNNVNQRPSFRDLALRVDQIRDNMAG
JAK1 protein kinase, sequence (P23458 whole entry): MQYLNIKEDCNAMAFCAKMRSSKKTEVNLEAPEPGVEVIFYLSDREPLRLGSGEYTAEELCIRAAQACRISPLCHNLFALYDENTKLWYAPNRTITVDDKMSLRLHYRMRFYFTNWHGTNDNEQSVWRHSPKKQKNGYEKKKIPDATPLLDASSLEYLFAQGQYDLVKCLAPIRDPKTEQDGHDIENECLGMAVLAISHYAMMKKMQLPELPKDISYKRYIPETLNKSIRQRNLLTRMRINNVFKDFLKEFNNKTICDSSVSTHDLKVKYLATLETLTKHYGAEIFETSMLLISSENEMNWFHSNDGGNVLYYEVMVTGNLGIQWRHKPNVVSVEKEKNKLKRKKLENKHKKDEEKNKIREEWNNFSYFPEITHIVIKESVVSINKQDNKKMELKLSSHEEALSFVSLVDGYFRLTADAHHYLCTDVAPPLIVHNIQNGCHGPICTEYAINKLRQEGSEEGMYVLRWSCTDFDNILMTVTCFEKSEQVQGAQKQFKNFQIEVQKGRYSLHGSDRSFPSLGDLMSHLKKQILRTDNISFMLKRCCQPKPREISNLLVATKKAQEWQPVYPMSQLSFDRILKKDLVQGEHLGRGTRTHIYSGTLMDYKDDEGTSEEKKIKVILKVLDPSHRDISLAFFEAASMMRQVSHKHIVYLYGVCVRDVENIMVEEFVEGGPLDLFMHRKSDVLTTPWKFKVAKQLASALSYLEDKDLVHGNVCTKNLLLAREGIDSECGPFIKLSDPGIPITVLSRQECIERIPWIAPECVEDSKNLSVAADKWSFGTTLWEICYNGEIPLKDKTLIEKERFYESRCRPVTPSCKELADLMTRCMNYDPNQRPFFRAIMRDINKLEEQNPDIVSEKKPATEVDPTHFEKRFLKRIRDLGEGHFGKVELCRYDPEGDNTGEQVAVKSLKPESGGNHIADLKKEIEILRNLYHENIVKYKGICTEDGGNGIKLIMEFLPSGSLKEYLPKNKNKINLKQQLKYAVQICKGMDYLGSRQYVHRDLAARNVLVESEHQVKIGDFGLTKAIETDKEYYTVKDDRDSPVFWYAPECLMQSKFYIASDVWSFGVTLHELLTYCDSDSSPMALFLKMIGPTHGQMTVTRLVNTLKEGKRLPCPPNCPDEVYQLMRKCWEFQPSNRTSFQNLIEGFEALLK

As for `CN(c1ncnc2[nH]ccc12)N1CCCN(C(=O)CC(F)(F)F)CC1` [WX36], the IC50 (commonly the concentration that gives 50% inhibition) was 100 to 1000 nM in test [1], over 1000 nM in test [2] and over 1000 nM in test [3].
As to `CN(c1ncnc2[nH]ccc12)N1CCCC(CNC(=O)CC#N)C1` (stereo not drawn) [WX45], the IC50 was 10 to 100 nM in test [1], 100 to 1000 nM in test [2] and 100 to 1000 nM in test [3].
On to `O=C(CC(F)(F)F)N1CCCN(Nc2ncnc3[nH]ccc23)CC1` [WX35, L-(4-((7H-pyrrolo[2,3-d]pyrimidin-4-yl)amino)-diazepan-1-yl)-3,3,3-trifluorotrifluoropropan-1-one], for which the IC50 in test [1], in test [2] and in test [3] was over 1000 nM in each case.
Consider `CN(c1ncnc2[nH]ccc12)N1CCCC(CC(=O)NCC#N)C1` (stereo not drawn) [WX18], for which the IC50 was 100 to 1000 nM in test [1], over 1000 nM in test [2] and 100 to 1000 nM in test [3].
Regarding `CN(c1ncnc2[nH]ccc12)N1CCC[C@H](C(=O)NCC(F)F)C1` (single isomer, unassigned) [WX50, (3S or 3R)-1-[methyl(7H-pyrrole[2,3-d]pyrimidine-4-)amino]-N-(2,2-difluoroethyl)piperidyl-3-formamide], the IC50 in test [1] is 100 to 1000 nM; in test [2], over 1000 nM; in test [3], 100 to 1000 nM.
As for `N#CCC(=O)N1CC2CCN(Nc3ncnc4[nH]ccc34)CC2C1` (stereo not drawn) [WX55, 3-[5-(7H-pyrrolo[2,3-d]pyrimidin-4-ylamino)-hexahydro-1H-pyrrolo[3,4-c]pyridin-2-yl]3-oxopropanenitrile], the IC50 in test [1] was 100 to 1000 nM; in test [2], over 1000 nM; in test [3], over 1000 nM.
On to `CN(c1ncnc2[nH]ccc12)N1CCCC(C(=O)Nc2cccc(C(F)(F)F)c2)C1` (stereo not drawn) [WX53, 1-[methyl(7H-pyrrolo[2,3-d]pyrimidin-4-yl)amino]-N-[3-(trifluoromethyl)phenyl]piperidyl-3-formamide], for which the IC50 in test [1] lay within 10 to 100 nM; in test [2], 100 to 1000 nM; in test [3], 100 to 1000 nM.
For `CN(c1ncnc2[nH]ccc12)N1CCCC(CNC(=O)CC(F)(F)F)C1` (stereo not drawn) [WX19, 3,3,3-trifluoro-N-((1-(methyl(7H-pyrrole[2,3-d]pyrimidine-4-)amino)piperidyl-3-)methyl)propionamide], the IC50 in test [1] is 100 to 1000 nM; in test [2], over 1000 nM; in test [3] it was 100 to 1000 nM.
In the case of `N#CCNC(=O)C1CCN(Nc2ncnc3[nH]ccc23)CC1` [WX21], the IC50 is 10 to 100 nM in test [1], over 1000 nM in test [2] and 100 to 1000 nM in test [3].
On to `CN(c1ncnc2[nH]ccc12)N1CCCC(c2ncc(C(F)(F)F)[nH]2)C1` (stereo not drawn) [WX57, N-methyl-N-[3-[5-trifluoromethyl-1H-imidazol-2-yl]-1-piperidinyl]-7H-pyrrolo[2,3-d]pyrimidine-4-amine], for which the IC50 in test [1], in test [2] and in test [3] was 10 to 100 nM throughout.
Take `CN(CC(F)(F)F)C(=O)C1CCCN(N(C)c2ncnc3[nH]ccc23)C1` (stereo not drawn) [WX02, N-methyl-1-(methyl(7H-pyrrolo[2,3-d]pyrimidin-4-yl)amino)-(2,2,2-trifluoroethyl)piperidyl-3-formamide]: the figures for the IC50 in test [1], in test [2] and in test [3] were 10 to 100 nM, 100 to 1000 nM and 10 to 100 nM, respectively.
Regarding `CN(c1ncnc2[nH]ccc12)N1CCCC(NC(=O)CC#N)C1` (stereo not drawn) [WX12], the IC50 in test [1] is 100 to 1000 nM; in test [2], over 1000 nM; in test [3] it was 100 to 1000 nM.
`CC1CCC(C(=O)NCC#N)CN1N(C)c1ncnc2[nH]ccc12` (stereo not drawn) [WX26, N-(cyanomethyl)-6-methyl-1-[methyl(7H-pyrrolo[2,3-d]pyrimidin-4-yl)amino]piperidyl-3-formamide]: the values for the IC50 in test [1], in test [2] and in test [3] were 100 to 1000 nM, over 1000 nM and 100 to 1000 nM, respectively.
`CC1CCC(C(=O)NCC(F)(F)F)CN1N(C)c1ncnc2[nH]ccc12` (stereo not drawn) [WX27, 6-methyl-1-(methyl(7H-pyrrole[2,3-d]pyrimidin-4-yl)amino)-N-(2,2,2-trifluoroethyl)piperidyl-3-formamide]: the IC50 in test [1] was 100 to 1000 nM; in test [2], over 1000 nM; in test [3] it was 100 to 1000 nM.
Turning to `CC1CCC2CN1N(c1ncnc3[nH]ccc13)C2=O` (stereo not drawn) [WX28, 2-methyl-7-(7H-pyrrolo[2,3-d]pyrimidin-4-yl)-1,7-diazabicyclo[3.2.1]octan-6-one], the IC50 in test [1], in test [2] and in test [3] was over 1000 nM each time.
As to `CCOC(=O)C1CCCN(N(C)c2ncnc3[nH]ccc23)C1` (stereo not drawn) [WX10, Ethyl 1-[methyl(7H-pyrrolo[2,3-d]pyrimidin-4-yl)amino]piperidyl-3-carboxylate], the IC50 lay within 10 to 100 nM in test [1], 100 to 1000 nM in test [2] and 10 to 100 nM in test [3].
As to `CN(c1ncnc2[nH]ccc12)N1CCCC(C(=O)NC2CC(F)(F)C2)C1` (stereo not drawn) [WX56], the IC50 in test [1] was under 10 nM; in test [2], over 1000 nM; in test [3], 10 to 100 nM.
On to `CN(c1ncnc2[nH]ccc12)N1CCCC(N2CCCC2=O)C1` (stereo not drawn) [WX29, 1-[1-[methyl(7H-pyrrolo[2,3-d]pyrimidin-4-yl)amino]-3-piperidinyl]pyrrolid-2-one], for which the IC50 in test [1] was over 1000 nM; in test [2], over 1000 nM; in test [3], 100 to 1000 nM.
On to `CN(c1ncnc2[nH]ccc12)N1CCC[C@@H](C(=O)NCC(F)F)C1` (single isomer, unassigned) [WX49, (3R or 3S)-1-[methyl(7H-pyrrole[2,3-d]pyrimidine-4-)amino]-N-(2,2-difluoroethyl)piperidyl-3-formamide], for which the IC50 in test [1], in test [2] and in test [3] was under 10 nM in each case.
For `O=C(NCC(F)(F)F)C1CCN(Nc2ncnc3[nH]ccc23)CC1` [WX22], the values for the IC50 in test [1], in test [2] and in test [3] were 100 to 1000 nM, over 1000 nM and 100 to 1000 nM, respectively.
With `N#CCNC(=O)C1CCCN(Nc2ncnc3[nH]ccc23)C1` (stereo not drawn) [WX03, N-(cyanomethyl)-1-(7H-pyrrolo[2,3-d]pyrimidin-4-yl-amino)piperidyl-3-formamide], the IC50 is under 10 nM in test [1], 10 to 100 nM in test [2] and 10 to 100 nM in test [3].
As for `CN(c1ncnc2[nH]ccc12)N1CCCC(C)(C(=O)NCC(F)(F)F)C1` (stereo not drawn) [WX38, 3-methyl-11-(methyl(7H-pyrrolo[2,3-d]pyrimidine-4-yl)amino)-N-(2,2,2-trifluoroethyl)piperidyl-3-formamide], the IC50 in test [1], in test [2] and in test [3] was over 1000 nM in each case.
`O=C(NCC(F)(F)F)C1CN(Nc2ncnc3[nH]ccc23)CCO1` (stereo not drawn) [WX40, 4-((7H-pyrrolo[2,3-d]pyrimidin-4-yl)amino)-N-(2,2,2-trifluoroethyl)morpholine-2-form amide]: the IC50 in test [1] was 10 to 100 nM; in test [2], over 1000 nM; in test [3], over 1000 nM.
Take `CN(c1ncnc2[nH]ccc12)N1CCC[C@H](C(=O)NCC(F)(F)C(F)(F)F)C1` (single isomer, unassigned) [WX52, (3S or 3R)-1-[methyl(7H-pyrrole[2,3-d]pyrimidine-4-)amino]-N-(2,2,3,3,3-pentafluoropropyl)piperidyl-3-formamide]: the IC50 was under 10 nM in test [1], 10 to 100 nM in test [2] and 10 to 100 nM in test [3].
